Source: publication PMC4216756 (Clinical cancer research : an official journal of the …, 2014)
Where “and” joins values, the source holds several entries; their conditions need not be identical. Equal entries are not always repeated. Where two headings read alike, the source gives them in different places.

Assays:
[1] = test system: patients with advanced thymic epithelial tumors; assay: Phase I dose escalation; type: in vivo, human
Thymoma = assay: Phase I/II efficacy; type: in vivo, human; details: belinostat + PAC
Thymic carcinoma = assay: Phase I/II efficacy; type: in vivo, human; details: belinostat + PAC
thymic epithelial tumors = assay: Phase I/II efficacy; type: in vivo, human
[2] = test system: patients with advanced thymic epithelial tumors; assay: Safety: treatment-related adverse events; type: in vivo, human
[3] = Plasma pharmacokinetics of belinostat, 48-hr CIVI, cycle 1; type: in vivo, human; details: for clearance / half-life: human, plasma, intravenous; for half-life: cycle 1, n=25
[4] = test system: protein acetylation, tubulin acetylation, p21 in PBMC; assay: Protein/tubulin acetylation and p21 in PBMC by multiparametric flow cytometry; type: in vivo, human
[5] = test system: Regulatory T cells and CD8+ T cells; assay: T cell subsets and immune markers in PBMC by flow cytometry; type: in vivo, human
[6] = test system: γ-H2AX expression on CD3+ and CD14+ cells; assay: DNA damage: γ-H2AX expression in PBMC; type: in vivo, human
TETs = details: single-agent belinostat, cited from earlier work
[7] = cited from earlier work
[8] = 23 evaluable patients treated at dose level 1
[9] = belinostat + PAC, Total, 25 evaluable patients
[10] = Dose level 1 (n=24), belinostat 1000 mg/m^2 + PAC
[11] = Dose level 2 (n=2), belinostat 2000 mg/m^2 + PAC
[12] = following belinostat plus chemotherapy, p<0.0001

O=C(/C=C/c1cccc(S(=O)(=O)Nc2ccccc2)c1)NO [belinostat, N-hydroxy-3-(phenylsulphamoylphenyl) acrylamide]
Dose-limiting toxicities ([1]; 2000 mg/m^2 belinostat (dose level 2) with PAC, in two patients): grade 3 nausea and diarrhea and grade 4 neutropenia and thrombocytopenia | Maximum-tolerated dose (MTD) of belinostat ([1]; CIVI over 48 hours with PAC, 3-week cycles): 1000 mg/m^2 | Median DOR (Thymoma): not reached | Median overall survival (Thymoma): Not reached | Median progression-free survival (Thymoma): Not reached | Complete response (Thymoma; 11 evaluable patients): 1 (9) n (%) | Disease control rate (95% confidence interval) (Thymoma; 11 evaluable patients): 100 (71.5–100.0) % | Objective Response Rate (95% confidence interval) (Thymoma; 11 evaluable patients): 64 (30.8–89.1) % | Partial Response (Thymoma; 11 evaluable patients): 6 (55) n (%) | Progressive Disease (Thymoma; 11 evaluable patients): 0 n (%) | Stable Disease (Thymoma; 11 evaluable patients): 4 (36) n (%) | Median overall survival (Thymic carcinoma): 21.4 months | Median progression-free survival (Thymic carcinoma): 7.2 months | Complete response (Thymic carcinoma; 14 evaluable patients): 0 n (%) | Disease control rate (95% confidence interval) (Thymic carcinoma; 14 evaluable patients): 93 (66.1–99.8) % | Objective Response Rate (95% confidence interval) (Thymic carcinoma; 14 evaluable patients): 21 (4.7–50.8) % | Partial Response (Thymic carcinoma; 14 evaluable patients): 3 (21) n (%) | Progressive Disease (Thymic carcinoma; 14 evaluable patients): 1 (7) n (%) | Patients who underwent R0 or R1 resection (thymic epithelial tumors; 9 of 23 assessed after at least 4 cycles of belinostat + PAC): 39% | Patients with PD (thymic epithelial tumors; [8]): 4% | Patients with PRs (thymic epithelial tumors; [8]): 30% | Patients with CR (thymic epithelial tumors; 23 evaluable patients treated at dose level 1 (belinostat 1000 mg/m^2 + PAC)): 4% | Patients with no evidence of disease at the time of reporting (thymic epithelial tumors; Six of 23, after multimodality therapy): 26% | Median progression-free survival (thymic epithelial tumors; belinostat + PAC, Total): 9 months and 9.0 months | Complete response (thymic epithelial tumors; [9]): 1 (4) n (%) | Disease control rate (95% confidence interval) (thymic epithelial tumors; [9]): 96 (79.7 –99.9) % | Objective Response Rate (95% confidence interval) (thymic epithelial tumors; [9]): 40 (21.1 –61.3) % | Partial Response (thymic epithelial tumors; [9]): 9 (36) n (%) | Progressive Disease (thymic epithelial tumors; [9]): 1 (4) n (%) | Stable Disease (thymic epithelial tumors; [9]): 14 (56) n (%) | Median overall survival (thymic epithelial tumors; belinostat + PAC, Total, median potential follow up 20.5 months): 28.5 months | Alanine aminotransferase increased, Grade 3/4 (%) ([2]; All dose levels (n= 26)): 4 (15) n (%) | Aspartate aminotransferase increased, Grade 3/4 (%) ([2]; All dose levels (n= 26)): 6 (23) n (%) | Atrial fibrillation, Grade 3/4 (%) ([2]; All dose levels (n= 26)): 1 (4) n (%) | Ejection fraction decreased, Grade 3/4 (%) ([2]; All dose levels (n= 26)): 1(4) n (%) | Electrocardiogram QT corrected interval prolonged, Grade 3/4 (%) ([2]; All dose levels (n= 26)): 1(4) n (%) | Enterocolitis infectious, Grade 3/4 (%) ([2]; All dose levels (n= 26)): 2(8) n (%) | Febrile neutropenia, Grade 3/4 (%) ([2]; All dose levels (n= 26)): 3(12) n (%) | Hearing impaired, Grade 3/4 (%) ([2]; All dose levels (n= 26)): 1(4) n (%) | Hypermagnesemia, Grade 3/4 (%) ([2]; All dose levels (n= 26)): 3 (12) n (%) | Hypoalbuminemia, Grade 3/4 (%) ([2]; All dose levels (n= 26)): 2(8) n (%) | Hypocalcemia, Grade 3/4 (%) ([2]; All dose levels (n= 26)): 2(8) n (%) | Hypokalemia, Grade 3/4 (%) ([2]; All dose levels (n= 26)): 4(15) n (%) | Hypomagnesemia, Grade 3/4 (%) ([2]; All dose levels (n= 26)): 1(4) n (%) | Hyponatremia, Grade 3/4 (%) ([2]; All dose levels (n= 26)): 1(4) n (%) | Hypophosphatemia, Grade 3/4 (%) ([2]; All dose levels (n= 26)): 6(23) n (%) | Limb edema, Grade 3/4 (%) ([2]; All dose levels (n= 26)): 1 (4) n (%) | Lung infection, Grade 3/4 (%) ([2]; All dose levels (n= 26)): 2(8) n (%) | Lymphocyte count decreased, Grade 3/4 (%) ([2]; All dose levels (n= 26)): 26 (100) n (%) | Neutrophil count decreased, Grade 3/4 (%) ([2]; All dose levels (n= 26)): 21 (81) n (%) | Non-cardiac chest pain, Grade 3/4 (%) ([2]; All dose levels (n= 26)): 1(4) n (%) | Pain in extremity, Grade 3/4 (%) ([2]; All dose levels (n= 26)): 1(4) n (%) | Platelet count decreased, Grade 3/4 (%) ([2]; All dose levels (n= 26)): 12 (46) n (%) | Thromboembolic event, Grade 3/4 (%) ([2]; All dose levels (n= 26)): 3(12) n (%) | Tumor lysis syndrome, Grade 3/4 (%) ([2]; All dose levels (n= 26)): 1(4) n (%) | Urinary tract infection, Grade 3/4 (%) ([2]; All dose levels (n= 26)): 1(4) n (%) | White blood cell decreased, Grade 3/4 (%) ([2]; All dose levels (n= 26)): 24 (92) n (%) | Alanine aminotransferase increased, Grade 3/4 [2, 10]: 3 | Aspartate aminotransferase increased, Grade 3/4 [2, 10]: 4 | Ejection fraction decreased, Grade 3/4 [2, 10]: 1 | Electrocardiogram QT corrected interval prolonged, Grade 3/4 [2, 10]: 1 | Enterocolitis infectious, Grade 3/4 [2, 10]: 1 | Febrile neutropenia, Grade 3/4 [2, 10]: 3 | Hearing impaired, Grade 3/4 [2, 10]: 1 | Hypermagnesemia, Grade 3/4 [2, 10]: 3 | Hypoalbuminemia, Grade 3/4 [2, 10]: 1 | Hypomagnesemia, Grade 3/4 [2, 10]: 1 | Hypophosphatemia, Grade 3/4 [2, 10]: 4 | Lung infection, Grade 3/4 [2, 10]: 2 | Lymphocyte count decreased, Grade 3/4 [2, 10]: 24 | Neutrophil count decreased, Grade 3/4 [2, 10]: 19 | Non-cardiac chest pain, Grade 3/4 [2, 10]: 1 | Pain in extremity, Grade 3/4 [2, 10]: 1 | Platelet count decreased, Grade 3/4 [2, 10]: 10 | Thromboembolic event, Grade 3/4 [2, 10]: 3 | Urinary tract infection, Grade 3/4 [2, 10]: 1 | White blood cell decreased, Grade 3/4 [2, 10]: 22 | Alanine aminotransferase increased, Grade 3/4 [2, 11]: 1 | Aspartate aminotransferase increased, Grade 3/4 [2, 11]: 2 | Atrial fibrillation, Grade 3/4 [2, 11]: 1 | Enterocolitis infectious, Grade 3/4 [2, 11]: 1 | Hypoalbuminemia, Grade 3/4 [2, 11]: 1 | Hypophosphatemia, Grade 3/4 [2, 11]: 2 | Lymphocyte count decreased, Grade 3/4 [2, 11]: 2 | Neutrophil count decreased, Grade 3/4 [2, 11]: 2 | Platelet count decreased, Grade 3/4 [2, 11]: 2 | Tumor lysis syndrome, Grade 3/4 [2, 11]: 1 | White blood cell decreased, Grade 3/4 [2, 11]: 2 | Patients requiring dose reductions of PAC due to toxicities ([2]; belinostat + PAC, n=26): 35% | Patients who discontinued treatment due to adverse events ([2]; belinostat + PAC, n=26): Four | Patients with QTc prolongation ([2]; belinostat + PAC, n=26, any grade, one grade 3 event): 35% | Plasma concentration of belinostat during the 48-hour infusion ([3]; 250 mg/m^2 per 12-h infusion, with PAC): around 1 μM | clearance ([3]; Clearance, range, 48-hr CIVI, cycle 1, all patients): 683 to 13200 mL/min | clearance ([3]; Clearance, range, after excluding outlier patient): 683 to 3350 mL/min | half-life ([3]; Half-life, range, 48-hr CIVI): 12 to 54.6 min | clearance ([3]; Mean clearance, 48-hr CIVI, cycle 1, all patients): 2220 mL/min | half-life ([3]; Mean half-life, 48-hr CIVI): 28.2 min | clearance ([3]; Total systemic clearance, the only patient with high serum creatinine (1.43 mg/dL)): 1770 mL/min | Differences in CMAX, AUCINF, clearance and half-life between genders and races ([3]; in vivo): no statistically significant differences | Patients with increase in total protein hyperacetylation of CD3+ cells ([4]; 21 of 23 patients, after belinostat): 91% | Increase in total protein hyperacetylation of CD3+ cells, median ([4]; after belinostat): 2.5 fold | p21 expression in CD14+ cells ([4]; after belinostat alone, p=0.019): increased | PBMC acetylated tubulin ([4]; after belinostat, p<0.0001): increased significantly | Total protein hyperacetylation of CD3+ cells ([4]; after belinostat, p<0.0001): increased significantly | Total protein hyperacetylation of CD14+ cells ([4]; after belinostat, p= 0.026): increased only marginally | p21 expression in CD14+ cells [4, 12]: increased | PBMC acetylated tubulin ([4]; following belinostat plus chemotherapy, p=0.0001): increased significantly | Fraction of CTLA4-expressing Tregs ([5]; after belinostat alone, p=0.0078): increased significantly | Fraction of CTLA4-expressing Tregs ([5]; after belinostat plus chemotherapy, p<0.0001): increased significantly | TIM3+ CD8+T cells ([5]; following belinostat alone vs baseline, p < 0.0001): decreased significantly | PD-1+ CD8+ T cells ([5]; following belinostat alone vs baseline, p=0.01): decreased significantly | Number of Tregs ([5]; following belinostat alone, p=0.0009): decreased significantly | Number of Tregs [5, 12]: decreased significantly | TIM3+ CD8+T cells ([5]; following belinostat with chemotherapy vs baseline, p <0.0001): decreased significantly | Median progression-free survival ([5]; patients with greater decline in Tregs post-combination therapy): not reached | Median progression-free survival ([5]; patients with greater decline in post-combination therapy TIM3+ CD8+T cells): not reached | Median OS ([5]; patients with higher pre-treatment CTLA4-expressing Tregs): 18.8 months | Median progression-free survival ([5]; patients with lesser decreases in TIM3+ CD8+T cells): 7.8 months | Median OS ([5]; patients with lower pre-treatment CTLA4-expressing Tregs): 37.5 months | γ-H2AX expression on CD3+ cells ([6]; after belinostat alone, p=0.033): increased | γ-H2AX expression on CD14+ cells ([6]; after belinostat alone, p=0.41): did not increase significantly | γ-H2AX expression on CD14+ cells ([6]; after belinostat plus chemotherapy, p=0.012): increased | γ-H2AX expression on CD3+ cells ([6]; following belinostat plus chemotherapy, p=0.01): increased | Patients with stable disease (TETs; of 41 patients): 25 patients | Median overall survival (TETs; overall population): 19.1 months | Median time to progression (TETs; overall population): 5.8 months | Responses in patients with thymic carcinoma (TETs): no responses | Elimination half-life ([7]; administered IV with paclitaxel and carboplatin): 1.7 h | Elimination half-life ([7]; administration over 30 minutes): 0.52 to 0.54 h | Elimination half-life ([7]; orally alone): 1.9 h
